# Reference: ChEMBL document CHEMBL1126961, “The design and synthesis of kappa opioid ligands based on a binding model for kappa agonists” (Bioorg Med Chem Lett, 1993)
# How the values were obtained:
# [1] = target: T1, Kappa-type opioid receptor (Homo sapiens, UniProt P41145); test: Ratio of binding affinity against kappa opioid receptor to binding affinity against mu opioid receptor
# [2] = target: T1, Kappa-type opioid receptor; test: Tested in vitro for binding affinity against Opioid receptor kappa 1
# Mu-type opioid receptor = Mu-type opioid receptor (Homo sapiens, UniProt P35372); test: Tested in vitro for binding affinity against mu opioid receptor
# Sequence of Mu-type opioid receptor (P35372 whole entry): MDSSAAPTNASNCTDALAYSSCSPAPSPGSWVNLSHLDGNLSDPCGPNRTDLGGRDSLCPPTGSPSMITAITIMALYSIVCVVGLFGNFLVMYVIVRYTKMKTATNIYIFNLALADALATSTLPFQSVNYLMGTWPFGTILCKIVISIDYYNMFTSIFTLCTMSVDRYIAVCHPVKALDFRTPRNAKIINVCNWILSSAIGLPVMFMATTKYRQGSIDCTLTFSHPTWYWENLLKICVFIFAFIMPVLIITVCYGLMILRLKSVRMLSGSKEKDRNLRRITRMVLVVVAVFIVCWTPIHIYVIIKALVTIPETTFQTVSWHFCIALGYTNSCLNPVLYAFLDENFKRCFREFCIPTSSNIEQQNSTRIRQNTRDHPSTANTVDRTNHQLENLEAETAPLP
# T1 sequence (P41145 whole entry): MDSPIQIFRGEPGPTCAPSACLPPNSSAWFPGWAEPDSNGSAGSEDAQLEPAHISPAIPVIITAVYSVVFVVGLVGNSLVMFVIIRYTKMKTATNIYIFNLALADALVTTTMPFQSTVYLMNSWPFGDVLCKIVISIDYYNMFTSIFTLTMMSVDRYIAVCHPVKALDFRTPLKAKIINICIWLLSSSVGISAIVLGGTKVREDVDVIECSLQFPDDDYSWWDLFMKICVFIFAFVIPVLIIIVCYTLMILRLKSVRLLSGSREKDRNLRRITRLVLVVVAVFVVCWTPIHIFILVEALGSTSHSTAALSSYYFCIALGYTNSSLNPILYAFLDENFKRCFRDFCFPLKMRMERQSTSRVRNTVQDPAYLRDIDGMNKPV
Compound,Ratio [1],Ki [2],Ki (Mu-type opioid receptor)
O=C(Cc1cccc2occc12)NCC12CCCN1CCC2,3.5,940 nM,3.35 µM
O=C1Cc2cccc(c2)OCCCCNCCN1,–,> 10000 nM,> 10 µM
CN(C(=O)Cc1c(OCCN2CCCC2)ccc2ccccc12)C1CCCCC1,> 60,160 nM,> 10 µM
CC[C@]12CCN(CC3CC3)[C@H](C(=O)c3ccc(O)cc31)[C@@H]2C,–,–,0.00102 µM
